US7504537B2, “Hydroxamic acid derivative and MMP inhibitor containing the same as active ingredient” (Dainippon Sumitomo Pharma Co., Ltd., priority 2001, dated 2009)

Columns and labels:
MMP-13 = biological target: T1, MMP-13 (Homo sapiens, UniProt P45452); assay: Test 2 Test on MMP-13 inhibition activity (fluorogenic peptide substrate); assay type: biochemical; conditions: activated MMP-13, 37° C.
T1 construct: a fragment of 767 bp encoding original 84 amino acids of complete MMP-13 and encoding 164 amino acids; made in house; host or cells: E. coli BL21 (DE3), pET11a
Source text: Test 2 Test on MMP-13 Inhibition Activity
In order to subcloning C-terminal truncated cDNA in which the cDNA encodes procollagenase-3 (proMMP-13) (J. Biol. Chem., 269(24), 16766-16773 (1994)), two synthesized oligonucleotide primer fragments: • (5′-[…]-3′ and 5′-[…]-3′: In former the sequence for specific NdeI site (under line) including first methionine is included, and in latter terminal codon and BamHI site (under lined) are included.) were used with human cartilage cell cDNA library for PCR. Due to these primers and Pfu DNA polymelase (STRATAGENE) for PCR, there was obtained a fragment of 767 bp encoding original 84 amino acids of complete MMP-13 and encoding 164 amino acids. The said fragment was cut out with digestion by NdeI and BamHI, and the fragment was annealed to NdeI site and BamHI site of pET11a (STRATAGENE). The recombinant plasmid was transformed into E. coli BL21 (DE3) and the bacteria were cultivated. The crude cell extract was prepared according to the method of Biochemistry. The said extract was dialyzed with 20 mM Tris-HCl (pH 7.2)/5 mM CaCl2/0.02% NaN3 solution, treated with SP-sepharose HP column (1.6×10 cm, Amasham-Pharmacia biotec), and the eluting was carried out by liner gradient from 0 to 0.3 m of sodium chloride solution (50 ml) (partially purified proMMP-13 was eluted at about 0.2M.) The eluted fraction was dialyzed with 20 mM Tris-HCl (pH 7.9)/5 mM CaCl2/200 mM (NH4)2SO4/0.02% NaN3 solution, treated with phenylsepharose HP column (1.6×5 cm, Amersham-Pharmacia biotec), and the eluting was carried out by liner gradient from 0.2M to 0M sulfuric acid ammonium solution (purified proMMP-13 was eluted at about 50 mM.). The eluted fraction was concentrated by YM-5 ultrafilter membrane, and activated by 4-aminophenyl mercuric acetate. Activated MMP-13 was treated with gel filtration chromatography in accordance with the method of Biochemistry to be separated from propeptide. Inhibiting Test Method
Enzyme activity test was carried out by the method of G. Knight (FEBS Lett., 296(3), 263-266 (1992)).
A mixture of activated MMP-13 (20 nM, 10 μl), buffer solution (70 μl, pH 7.5 solution containing 100 mM Tris-HCl solution, 10 mM calcium chloride solution, 100 mM sodium chloride solution and 0.05% Briji-35 solution), MOCAc-Pro-Leu-Gly-Leu-A2pr(DNP)-Ala-Arg-NH2 in 0.1% DMSO solution (100 μM, 10 μl) and a test compound in DMSO solution was incubated for 1.5 hours at 37° C. The mixture was put on a 96 well-plate (100 μl/wel), and the plate was incubated at 37° C. The enzyme activity in the presence of the compound was measured based on fluorescence intensity (λex 320 nm, λem 405 nm), and IC50 was calculated.

MMP-14 (MT1-MMP) = biological target: T2, MMP-14 (MT1-MMP) (Homo sapiens, UniProt P50281); assay: Test 5 MMP-14 (MT1-MMP) inhibiting activity test; assay type: biochemical; conditions: human recombinant MT1-MMP, 37° C.; read-out: MMP-14 inhibition activity value
T2 construct: purchased Biogenesis, supplied by Cosmobio (Nakarai Tesku)
Protocol: Test 5 MMP-14 (MTI-MMP) Inhibiting Activity Test
Human recombinant MTI-MMP used the product prepared by Biogenesis and supplied by Cosmobio (Nakarai Tesku).
An assay buffer solution (70 μl, pH 7.5 solution containing 0.1M Tris-HCl solution, 0.1M calcium chloride solution, 10 mM sodium chloride solution and 0.05% Brij-35 solution), 0.1 w/w % a compound in DMSO (10 μl), MMP substrate solution (MOCAc-Pro-Leu-Gly-Leu-A2pr(DNP)-Ala-Arg-NH2 (Peptide Lab.) diluted with the assay buffer solution (50 μM, 10 μl)) and human recombinant MT1-MMP (0.4 pg/10 μl/well) were well agitated under stirring. The enzyme activity of the mixture was measured based on fluorescence intensity (λex 320 nm/λem 405 nm) by a fluorescence reader. After the mixture was incubated at 37° C. for 0.5 hour, the fluorescence intensity (λex 320 nm/λem 405 nm) was measured every hour, and IC50 was calculated.
The inhibition value was calculated by withdrawing average value of blank well from fluorescence mean value of well in which MT1-MMP was added. As the blank was used the mixed solution prepared by adding assay buffer (10 μl) instead of MT1-MMP solution.

MMP-1 = biological target: T3, MMP-1 (Homo sapiens, UniProt P03956); assay: Test 6 MMP-1 inhibition activity test; assay type: biochemical; conditions: MMP-1 from human rheumatic synovium fibroblast, activated with AMPA
T3 construct: calbiochem cat; purchased calbiochem 444208; host or cells: human rheumatic synovium fibroblast
T3 sequence (P03956 100-469): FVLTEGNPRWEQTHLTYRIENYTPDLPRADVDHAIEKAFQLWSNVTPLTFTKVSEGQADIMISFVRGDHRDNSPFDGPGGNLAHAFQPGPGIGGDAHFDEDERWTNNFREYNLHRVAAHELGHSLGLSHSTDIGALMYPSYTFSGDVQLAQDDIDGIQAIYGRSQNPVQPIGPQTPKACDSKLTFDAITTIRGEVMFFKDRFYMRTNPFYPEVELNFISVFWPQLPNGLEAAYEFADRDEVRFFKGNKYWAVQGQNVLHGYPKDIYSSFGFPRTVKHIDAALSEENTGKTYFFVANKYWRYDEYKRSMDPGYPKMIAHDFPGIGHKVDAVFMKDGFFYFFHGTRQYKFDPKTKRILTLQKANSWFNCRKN
Protocol: Test 6 MMP-1 Inhibition Activity Test
MMP-1 (stroma collagenase: EC3.4.24.7, human rheumatic synovium fibroblast, calbiochem cat. 444208) was activated with AMPA at 37° C. for 60 minutes. A test compound was preincubated with activated MMP-1 at 37° C. for 60 minutes in the reaction mixture containing 50 mM MOPS (pH 7.2), 10 mM aqueous calcium chloride solution, and 10 μM zinc chloride. Thereto was added 25 μM Mca-Pro-Leu-Dpa-Ala-Arg-NH2, and the mixture was incubated at 37° C. for 120 minutes. The enzyme activity was measured by fluorescence intensity of Mca-Pro-Leu-Gly, and IC50 was calculated.

[1] = test system: degeneration of cartilage; assay: Test 8 Rat meniscectomy model test (in vivo); conditions: male SD (IGS) rats, 50 mg/kg orally once a day for 3 weeks; injured group = 100%
Protocol: Test 8 Rat Meniscectomy Model Test (in vivo)
For this test male rats (6 weeks old SD (IGS)) were used. A meniscus of joint of a right hind limb was partially removed. Compound of Example 2 was orally administered for 3 weeks once a day in the amount of 50 mg/kg. The tissue speciman of the joint was prepared, and stained with safranin O/first green, and the degeneration of cartilage was evaluated. The degree of the degeneration of cartilage in the test compound group was calculated as 100% of the degree of that in the injured group. Cartilage degeneration rate was 33% (*; p<0.05, Steel-test)

Row | Structure (SMILES) | IC50 (MMP-13) [nM] | IC50 (MMP-14 (MT1-MMP)) [nM] | IC50 (MMP-1) [nM] | Cartilage degeneration rate [1] [%]
1 | CC(C)CN(C1(C(=O)NO)CCCC1)S(=O)(=O)c1ccc(Oc2ccc(S(C)(=O)=O)cc2)cc1 [Example 2, N-hydroxy 1-[isobutyl({4-[4-(methylsulfonyl)phenoxy]phenyl}sulfonyl)amino]cyclopentanecarboxamide] | 5.7 | 3800 | 7210 | 33
2 | CS(=O)(=O)c1ccc(Oc2ccc(S(=O)(=O)N(Cc3ccccc3)C3(C(=O)NO)CCOCC3)cc2)cc1 [Example 12, 4-[Benzyl({4-[4-(methylsulfonyl)phenoxy]phenyl}sulfonyl)amino]-N-hydroxytetrahydoro-2H-pyrane-4-carboxamide] | 4 | 893 | > 10000 | 
3 | CCOC(=O)CN(CC(=O)NO)S(=O)(=O)c1ccc(Oc2ccc(S(C)(=O)=O)cc2)cc1 [Example 22, Ethyl N-{[(hydroxyamino)carbonyl]methyl}-N-({4-[4-(methylsulfonyl)phenoxy]phenyl}sulfonyl)-glycinate] | 1.9 | 668 | > 10000 | 
